Experimental findings from PMC10376254, “Phytochemical and Bioactivity Studies on Hedera helix L. (Ivy) Flower Pollen and Ivy Bee Pollen” (Antioxidants, 2023) are described below.

A short description of one assay: ABTS assay. As to conditions: trolox equivalents, n = 3, average ± SD.
Assay [1] can be described thus: Superoxide radical scavenging (SOD) activity (xanthine/XO/NBT). The following applies: for SOD Activity IC50: enzymatic xanthine/XO/NBT, 560 nm, n = 3, ± SD, N.d. = Not detected. Format: biochemical.
Description: Half-maximal inhibitory concentration values (IC50) were calculated for superoxide radical scavenging and XO inhibitory activity. Inhibition values (%) were calculated based on absorbances (A) measured against blank solutions by using the following formula:Inhibition (%): (1 − (ASample − ASample Blank)/(AControl − AControl Blank)) × 100. (1)
SOD activity was performed as described in Ref. [27]. […] After incubation at 37 °C for 20 min the reaction was terminated by hydrochloric acid (0.6 M, 80 µL) and absorption was measured at 560 nm against a blank solution containing all reagents except XO.
Assay [2] in a line: CUPRAC assay (cupric reducing antioxidant capacity). As to conditions: trolox equivalents, n = 3, average ± SD.
Description: (§1) The antioxidant activities were expressed as mg of trolox equivalents (TE) per g of hydroalcoholic extract (TE/g hydroalcoholic extract).
The CUPRAC method [32] was applied. Copper (II) sulfate pentahydrate (10 mM, 85 µL), neocuproine (7.5 mM, 85 µL) ammonium acetate buffer solution (85 µL, pH 7) and water (51 µL) were inserted in each well of a 96-well microplate. Then, either 43 µL of the DSTSs or trolox standard solutions (3.125–200 μg/mL) or water as a blank were added into each well. After incubation at room temperature for 30 min, the absorbance was measured at 450 nm.
Assay [3] can be described thus: FRAP assay (ferric reducing antioxidant power). The following applies: trolox equivalents, n = 3, average ± SD.
Description: The same range of concentration (1–2.5 mg/mL) of DSTSs was applied for DPPH, FRAP, CUPRAC and ABTS assays. […] The antioxidant activities were expressed as mg of trolox equivalents (TE) per g of hydroalcoholic extract (TE/g hydroalcoholic extract).
FRAP solution was freshly prepared by mixing 1 volume of iron (III) chloride solution (2 × 10^−2 M), 1 volume of TPTZ solution (1 × 10^−2 M) and 10 volumes of sodium acetate buffer (pH 3.6) solution. FRAP solution (280 µL) and the DSTSs (20 µL) or trolox standard solutions (20 µL; 3.125–100 μg/mL) or water as a blank (20 µL) were added in separate wells of a 96-well microplate, and after 6 min the absorbance was measured at 593 nm [31].
The nature of assay [4]: DPPH• assay (spectrophotometric antioxidant activity). The following applies: trolox equivalents, n = 3, average ± SD.
Description: The same range of concentration (1–2.5 mg/mL) of DSTSs was applied for DPPH, FRAP, CUPRAC and ABTS assays. […] The antioxidant activities were expressed as mg of trolox equivalents (TE) per g of hydroalcoholic extract (TE/g hydroalcoholic extract). […] Inhibition values (%) were calculated based on absorbances (A) measured against blank solutions by using the following formula:Inhibition (%): (1 − (ASample − ASample Blank)/(AControl − AControl Blank)) × 100.
Equal volumes (20 μL) of the DSTSs, trolox standard solutions (3.125–100 μg/mL) and methanol (as a blank) were placed in separate wells of a 96-well microplate, which was followed by the addition of DPPH solution (0.1 mM, 280 μL) to each well. After incubation in the dark at room temperature for 30 min, the absorbance was measured at 530 nm [30].
For assay [5], the system named is xanthine oxidase (XO). Put plainly: HPTLC-xanthine oxidase inhibitory activity (bioautography). As to conditions: for HPTLC-XO zone detection (XO inhibitors as white/yellow zones on purple background): 8 µg on plate for compounds, samples 50 mg/mL, 2 and 5 µL, documented 0–120 min. The class given is biochemical.
Description: HPTLC analyses was immersed into a derivatization chamber with a mixture of phosphate buffer solution (pH 7.6) containing EDTA (1 mM), NBT (1 mM) and XO (0.1 U/mL), and incubated at 37 °C for 30 min in the dark. After drying in the air, the HPTLC plate was dipped into a phosphate buffer solution containing xanthine (1.5 mM) and incubated at 37 °C for 30 min in the dark. After drying in the air, the HPTLC plate was documented at white light in RT mode immediately (0 min), as well as at 5, 10, 15, 20, 30, 45, 60, 90, and 120 min, subsequently.
In HPTLC-XO inhibitory activity assay, the developed plate was dipped into a phosphate buffer solution containing xanthine and after incubation and drying was documented immediately (t = 0 min) and after 5, 10, 15, 20, 30, 45, 60, 90 and 120 min. Within this documentation interval, the plate was stored in the dark. The XO inhibitors were detected as white/yellow zones on a purple background (Figure 7).
For assay [6], the target named is T1, xanthine oxidase (XO) (Bos taurus, UniProt P80457).
T1 construct: purchased Sigma-Aldrich (Steinheim, Germany)
Description: Xanthine oxidase inhibitory activity (spectrophotometric). Format: biochemical. The following applies: for XO inhibitory activity (in words): spectrophotometric assay, at the applied concentrations (0.01–1 mg/mL).
Description: Half-maximal inhibitory concentration values (IC50) were calculated for superoxide radical scavenging and XO inhibitory activity. Inhibition values (%) were calculated based on absorbances (A) measured against blank solutions by using the following formula:Inhibition (%): (1 − (ASample − ASample Blank)/(AControl − AControl Blank)) × 100.
Sodium phosphate buffer (50 mM, pH 7.5, 75 µL) was placed in the wells of a 96-well microplate; this was followed by the DSTSs in different concentrations (25 µL); followed by freshly prepared XO solution (0.2 U/mL in phosphate buffer solution, 25 µL); followed by water (25 µL). Incubation of the reaction mixture at 37 °C for 15 min was followed by the addition of a substrate solution (0.15 mM xanthine, 50 µL) into the mixture and incubation at 37 °C for 30 min until the reaction was terminated by the addition of hydrochloric acid (0.5 M, 50 µL). Finally, the absorbance was measured at 290 nm against a blank, containing all reagents, except the enzyme solution.

Assay [7] is described as follows: HPTLC-DPPH• effect-directed analysis. As to conditions: 0.4 µg on plate for compounds; STS 20 mg/mL, 2 and 5 µL.
Description: HPTLC analyses were dipped into DPPH solution (0.1%) for 3 s using a Chromatogram Immersion Device III (Camag). The plates were left to dry in the air in the dark and were documented under white light after 30 min. The compounds having antioxidant activity appeared as yellow bands on the purple background.
The image of the HPTLC plate captured at white light illumination after HPTLC-DPPH analyses was for image analyses converted to a different format using WinCATS software (Camag) and then converted to videodensitograms in fluorescence mode using VideoScan TLC/HPTLC Evaluation Software (Version 1.02.00) (Camag).
Where [8] appears, read: spectrophotometric, 290 nm, n = 3, ± SD, N.d. = Not detected.

Each structure is given as a SMILES string. “Also recorded” adds a separate entry of the source. Marks after values point to notes of the source that are not given here.

T1 sequence (P80457 2-1332 limits assumed): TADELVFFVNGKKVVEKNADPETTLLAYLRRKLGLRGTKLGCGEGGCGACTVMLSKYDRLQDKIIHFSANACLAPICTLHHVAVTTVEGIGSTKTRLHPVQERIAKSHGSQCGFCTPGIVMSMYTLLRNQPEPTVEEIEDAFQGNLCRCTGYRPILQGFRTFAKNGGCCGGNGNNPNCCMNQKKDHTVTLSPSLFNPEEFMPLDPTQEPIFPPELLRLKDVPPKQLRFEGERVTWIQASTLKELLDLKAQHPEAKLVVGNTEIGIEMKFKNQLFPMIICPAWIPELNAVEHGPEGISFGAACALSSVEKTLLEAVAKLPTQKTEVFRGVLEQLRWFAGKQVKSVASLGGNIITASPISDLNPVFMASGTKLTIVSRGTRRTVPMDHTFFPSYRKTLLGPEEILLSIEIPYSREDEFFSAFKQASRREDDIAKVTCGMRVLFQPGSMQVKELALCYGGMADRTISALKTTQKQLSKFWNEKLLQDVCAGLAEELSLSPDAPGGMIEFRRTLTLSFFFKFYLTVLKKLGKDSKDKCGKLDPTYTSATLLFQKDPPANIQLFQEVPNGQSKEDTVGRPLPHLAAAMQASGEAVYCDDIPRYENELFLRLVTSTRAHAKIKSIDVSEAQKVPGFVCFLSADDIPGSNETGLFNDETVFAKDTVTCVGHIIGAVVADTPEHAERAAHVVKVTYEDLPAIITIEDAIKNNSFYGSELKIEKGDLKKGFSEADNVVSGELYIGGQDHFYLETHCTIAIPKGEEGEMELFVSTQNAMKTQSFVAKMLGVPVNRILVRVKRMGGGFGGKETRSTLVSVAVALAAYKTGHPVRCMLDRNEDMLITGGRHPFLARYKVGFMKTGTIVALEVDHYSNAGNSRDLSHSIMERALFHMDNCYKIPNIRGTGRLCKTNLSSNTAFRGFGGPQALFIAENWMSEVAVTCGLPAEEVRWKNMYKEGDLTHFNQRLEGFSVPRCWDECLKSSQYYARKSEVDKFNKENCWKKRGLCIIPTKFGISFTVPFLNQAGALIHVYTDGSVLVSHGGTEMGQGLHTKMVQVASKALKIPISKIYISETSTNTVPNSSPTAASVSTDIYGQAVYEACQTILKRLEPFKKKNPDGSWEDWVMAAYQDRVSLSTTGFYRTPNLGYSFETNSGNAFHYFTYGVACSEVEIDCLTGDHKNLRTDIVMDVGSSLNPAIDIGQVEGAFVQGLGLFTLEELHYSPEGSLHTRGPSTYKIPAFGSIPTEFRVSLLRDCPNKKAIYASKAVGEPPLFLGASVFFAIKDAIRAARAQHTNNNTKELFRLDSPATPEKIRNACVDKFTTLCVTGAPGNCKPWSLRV
Description for ABTS assay: as §1
ABTS assay [33] was slightly modified and then applied. Equal volumes (20 µL) of the DSTSs, trolox standard solutions (6.25–100 μg/mL) or methanol (as a blank) were placed in separate wells of a 96-well microplate plate, and ABTS reagent (280 µL) was added. The absorbance was measured at 734 nm, after incubating the well plate for 6 min at room temperature.

Take `C[C@@H]1OC(Oc2c(-c3ccc(O)cc3)oc3cc(O)cc(O)c3c2=O)[C@H](O)[C@H](O)[C@H]1O` (some centres unmarked) [Afzelin, kaempferol-3-O-rhamnopyranoside]: the ABTS antioxidant activity in the assay “ABTS assay” is 104.71 ± 0.25 ^e mg TE/g. For the same compound, the “SOD Activity IC50” value in assay [1] is listed as 20.61 ± 1.30 ^b µg/mL. In addition, the CUPRAC antioxidant activity in assay [2] is reported as 171.40 ± 8.24 ^e mg TE/g. The FRAP antioxidant activity in assay [3] is 58.54 ± 2.37 ^d mg TE/g. The DPPH antioxidant activity in assay [4] was 149.35 ± 4.28 ^d mg TE/g. Further, the “HPTLC-XO zone detection (XO inhibitors as white/yellow zones on purple background)” value in the assay with xanthine oxidase (XO) [5] is “appeared immediately as yellow zones and lasted for 120 min”.
On to `Oc1ncnc2[nH]ncc12` [Allopurinol, allopurinol, reference compound], for which the “SOD Activity IC50” value is 3.03 ± 0.10 ^a µg/mL in assay [1] and 3.0 µg/mL in assay [1] (listed as allopurinol). The “HPTLC-XO zone detection (XO inhibitors as white/yellow zones on purple background)” value in the assay with xanthine oxidase (XO) [5] is given as “immediately as a white zone, which lasted for 120 min”.
Turning to `O=C(/C=C/c1ccc(O)c(O)c1)O[C@@H]1CC(O)(C(=O)O)C[C@@H](OC(=O)/C=C/c2ccc(O)c(O)c2)C1O` (some centres unmarked) [3,5-Dicaffeoylquinic acid, 3,5-dicaffeoylquinic acid, reference compound], in the assay “ABTS assay”, the ABTS antioxidant activity was 701.64 ± 13.63 ^b mg TE/g. In addition, at xanthine oxidase (XO) [6] (setting [8]), the “XO Inhibitory Activity IC50” value was 17.47 ± 2.23 ^c µg/mL. The “SOD Activity IC50” value in assay [1] is 5.87 ± 0.32 ^a µg/mL. Besides, in assay [7], the “HPTLC-DPPH intensity of yellow zone” value was “slightly lower intensity”. Moreover, the CUPRAC antioxidant activity in assay [2] is listed as 760.83 ± 12.84 ^b mg TE/g. Moreover, the FRAP antioxidant activity in assay [3] was 542.36 ± 15.41 ^b mg TE/g. In addition, in assay [4], the DPPH antioxidant activity is given as 665.53 ± 1.96 ^b mg TE/g. The “HPTLC-XO zone detection (XO inhibitors as white/yellow zones on purple background)” value with xanthine oxidase (XO) [5] was “appeared immediately as yellow zones and lasted for 120 min”.
Turning to `O=c1c(O[C@@H]2O[C@H](CO)[C@H](O)[C@H](O)[C@H]2O[C@@H]2O[C@H](CO)[C@@H](O)[C@H](O)[C@H]2O)c(-c2ccc(O)c(O)c2)oc2cc(O)cc(O)c12` [quercetin 3-O-β-glucopyranosyl-(1→2)-β-galactopyranoside], the ABTS antioxidant activity in the assay “ABTS assay” was 242.13 ± 5.88 ^c mg TE/g. For the same compound, at xanthine oxidase (XO) [6], the “XO inhibitory activity (in words)” value is recorded as “low XO inhibitory activity”. This compound also had a concentration for half-maximal inhibition (IC50) at xanthine oxidase (XO) [6] (setting [8]) of 117 µM. In assay [1], the “SOD Activity IC50” value is 5.09 ± 0.36 ^a µg/mL. Besides, in assay [2], the CUPRAC antioxidant activity is 560.53 ± 14.74 ^c mg TE/g. Also, the FRAP antioxidant activity in assay [3] is reported as 227.30 ± 2.65 ^c mg TE/g. Moreover, the DPPH antioxidant activity in assay [4] is recorded as 400.21 ± 11.78 ^c mg TE/g. In addition, the “HPTLC-XO zone detection (XO inhibitors as white/yellow zones on purple background)” value in the assay on xanthine oxidase (XO) [5] is “appeared immediately as yellow zones and lasted for 120 min”.
`O=C(/C=C/c1ccc(O)c(O)c1)O[C@@H]1C[C@](O)(C(=O)O)C[C@@H](O)[C@H]1O` [Chlorogenic acid, chlorogenic acid, reference compound] gave an IC50 against xanthine oxidase (XO) [6] (setting [8]) of 35.8 µM. Besides, the “HPTLC-XO zone detection (XO inhibitors as white/yellow zones on purple background)” value in the assay on xanthine oxidase (XO) [5] is “appeared immediately as yellow zones and lasted for 120 min”.
With `C[C@@H]1O[C@@H](Oc2c(-c3ccc(O)cc3)oc3cc(O)cc(O)c3c2=O)[C@H](OC(=O)/C=C/c2ccc(O)cc2)[C@H](OC(=O)/C=C/c2ccc(O)cc2)[C@H]1O` [Platanoside], the ABTS antioxidant activity in “ABTS assay” was 173.15 ± 0.86 ^d mg TE/g. For the same compound, on xanthine oxidase (XO) [6], the “XO inhibitory activity (in words)” value is reported as “no XO inhibitory activity”. The “SOD activity (in words)” value in assay [1] (spectrophotometric assay) is recorded as “no SOD activity”. Further, the CUPRAC antioxidant activity in assay [2] is 213.68 ± 8.41 ^d mg TE/g. In assay [3], the FRAP antioxidant activity is 49.06 ± 0.91 ^de mg TE/g. Besides, the DPPH antioxidant activity in assay [4] is given as 143.11 ± 1.31 ^d mg TE/g. In addition, the “time at which the XO inhibition zone appeared on the HPTLC plate” value in the assay with xanthine oxidase (XO) [5] (8 µg on plate) was 20 min. The “HPTLC-XO zone detection (XO inhibitors as white/yellow zones on purple background)” value in the assay on xanthine oxidase (XO) [5] is reported as “weakest XO inhibition activity; also recorded: weak yellow zone”.
